Measured values as given in US9873695B2, “Serine derivatives as ghrelin receptor agonists” (RaQualia Pharma Inc., priority 2014, dated 2018).
pEC50: −log10 of the molar value.

Target: T1, human ghrelin receptor (Homo sapiens, UniProt Q92847)
T1 construct: expressed in transfected cells
Assay: Ghrelin receptor agonistic activity induced Ca2+ influx in HEK293 cells stably expressing human ghrelin receptor
Format: cell-based
Settings: Ca2+ influx (Fluo-4, FDSS6000), 11-point dose-response
Protocol: Measurement of the Ghrelin Receptor Agonistic Activity Induced Ca^2+ Influx in HEK293 Cells Stably Expressing Human Ghrelin Receptor
HEK293 cells stably expressing human ghrelin receptor were maintained in Dulbecco's modified Eagle medium (high glucose) supplemented with 10% fetal bovine serum, 100 units/ml penicillin, 100 microg/ml streptomycin and 500 microg/ml G418 at 37° C. in a humidified incubator with 5% CO2 and grown to 60-80% confluence. The day before the assay, the cells were seeded on poly-D-lysine coated 384-well plates (BD FALCON) at a density of 10,000 cells per well, and incubated overnight in incubator.
On the day of the assay, the cells were washed three times with assay buffer (Hanks' balanced salt solution with 20 mM HEPES, pH7.4), and were incubated for 1 hour at room temperature to load 0.5 microM Fluo-4 AM reagent (Invitrogen).
After removing Fluo-4, and washing with assay buffer, the cells were added with various concentrations of the compounds. The changes in intracellular calcium concentration were monitored with the fluorescence imaging plate reader, FDSS6000 (Hamamatsu Photonics).
The EC50 values for compounds of the present invention were determined from 11-point dose-response studies. Curves were generated using the average of duplicate wells for each data point. Finally, the EC50 values were calculated using the best-fit dose curve determined by XLfit (ID Business Solutions Ltd).

T1 sequence (Q92847 whole entry): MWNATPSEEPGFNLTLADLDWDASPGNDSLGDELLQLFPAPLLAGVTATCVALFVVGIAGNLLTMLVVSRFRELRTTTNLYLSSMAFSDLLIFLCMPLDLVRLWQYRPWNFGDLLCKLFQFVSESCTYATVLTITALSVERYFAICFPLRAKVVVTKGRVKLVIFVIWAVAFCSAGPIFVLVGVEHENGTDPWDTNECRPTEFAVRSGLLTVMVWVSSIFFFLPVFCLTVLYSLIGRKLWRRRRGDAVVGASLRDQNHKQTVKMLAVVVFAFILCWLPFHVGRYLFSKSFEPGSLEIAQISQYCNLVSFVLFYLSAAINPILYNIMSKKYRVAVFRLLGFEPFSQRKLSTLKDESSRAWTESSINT

SMILES	pEC50
CN1N=C2CCN(C(=O)[C@@H](COc3cc(C(F)(F)F)cc(C(F)(F)F)c3)NC(=O)C(C)(C)N)C[C@@]2(Cc2ccccc2)C1=O [Example 9, 2-amino-N—((R)-1-((R)-3a-benzyl-2-methyl-3-oxo-3a,4,6,7-tetrahydro-2H-pyrazolo[4,3-c]pyridin-5(3H)-yl)-3-(3,5-bis(trifluoromethyl)phenoxy)-1-oxopropan-2-yl)-2-methylpropanamide]	> 8.00
CN1N=C2CCN(C(=O)[C@@H](COc3ccccn3)NC(=O)C(C)(C)N)C[C@@]2(Cc2ccccc2)C1=O [Example 17, 2-amino-N—((R)-1-((R)-3a-benzyl-2-methyl-3-oxo-3a,4,6,7-tetrahydro-2H-pyrazolo[4,3-c]pyridin-5(3H)-yl)-1-oxo-3-(pyridin-2-yloxy)propan-2-yl)-2-methylpropanamide]	> 8.00
CN1N=C2CCN(C(=O)[C@@H](COc3cncc(F)c3)NC(=O)C(C)(C)N)C[C@@]2(Cc2ccccc2)C1=O [Example 18, 2-amino-N—((R)-1-((R)-3a-benzyl-2-methyl-3-oxo-3a,4,6,7-tetrahydro-2H-pyrazolo[4,3-c]pyridin-5(3H)-yl)-3-((5-fluoropyridin-3-yl)oxy)-1-oxopropan-2-yl)-2-methylpropanamide]	> 8.00
CN1N=C2CCN(C(=O)[C@@H](COc3ccc(C#N)cc3)NC(=O)C(C)(C)N)C[C@@]2(Cc2ccccc2)C1=O [Example 20, 2-amino-N—((R)-1-((R)-3a-benzyl-2-methyl-3-oxo-3a,4,6,7-tetrahydro-2H-pyrazolo[4,3-c]pyridin-5(3H)-yl)-3-(4-cyanophenoxy)-1-oxopropan-2-yl)-2-methylpropanamide]	> 8.00
